Test results as given in publication PMC4965013, “Open Source Drug Discovery with the Malaria Box Compound Collection for Neglected Diseases and Beyond” (PLoS Pathogens, 2016).
Values joined by “and” are separate entries in the source; they are usually repeats but may differ in a detail not shown here. Identical values can stand only once.

What was measured:
[1] = tested on: NCI60 human tumor cell lines; assay: NCI60 5-dose (dose-response) assay; type: cell-based; settings: for MGLI50 = Mean Growth Log I50: 5-dose, mean over NCI60 panel; for _MID Log10GI50 / _MID Log10LC50 / _MID Log10TGI: mean over cell lines of one experiment
From the text: Columns IE-KK. NCI: Misra group (data presented first in this paper). NCI60 anti-tumor cell activity. Methods: […] These 60 cell lines, along with others, have been developed at NCI and have been maintained and distributed for research purposes by NCI for over 25 years. The experimental readout provides both inhibition of cell growth and cell kill. The screen was originally designed to prioritize agents for further evaluation. […] This is the same as for the 5-dose assay, described on http://dtp.cancer.gov/branches/btb/ivclsp.html. […] Testing beyond the initial screen: There were 133 compounds that passed threshold to proceed to 5-dose (dose-response) (data are available for the 133 compounds at the DTP public website (dtp.cancer.gov) by searching either the MMV number or NSC number). After examination of the 5-dose data, 10 compounds were selected for repeat testing based generally on potency, differential cell activity or activity on an individual cell lines or cell line panel. A summary of the data for the 10 compounds of interest is in the table below.

PfPMT = PfPMT (Plasmodium falciparum, UniProt Q8IDQ9); assay: PfPMT gene replacement yeast growth; settings: 100µM
Chain of PfPMT (Q8IDQ9 whole entry): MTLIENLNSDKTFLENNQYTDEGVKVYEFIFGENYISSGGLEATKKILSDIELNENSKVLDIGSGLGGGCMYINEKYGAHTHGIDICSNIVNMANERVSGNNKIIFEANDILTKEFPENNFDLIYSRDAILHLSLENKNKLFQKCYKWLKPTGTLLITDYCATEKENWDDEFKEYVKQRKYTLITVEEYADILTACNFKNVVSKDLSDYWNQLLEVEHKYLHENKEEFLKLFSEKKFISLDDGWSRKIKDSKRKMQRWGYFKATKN

For `O=C(NC1CCN(Cc2ccccc2)CC1)c1cc(-c2ccncc2)nc2ccc(Cl)cc12` [MMV020275], the “MGLI50 = Mean Growth Log I50” value [1] was -4.93, the “_MID Log10GI50” value ([1]; listed as 766585/2) was -4.95 Molar and -4.91 Molar and the “_MID Log10LC50” value ([1]; listed as 766585/2) was -4.05 Molar and -4.01 Molar. The “_MID Log10TGI” value ([1]; listed as 766585/2) was -4.34 Molar and -4.19 Molar.
In the case of `N=c1n(CCN2CCCCC2)c2ccccc2n1CC(=O)c1ccc(Cl)c(Cl)c1` [MMV396723], the “candidate inhibitors of PfPMT activity (yeast functional assay)” value (shortened to “candidate inhibitors”) (PfPMT) is reported as “candidate inhibitors of PfPMT activity”.
`Cc1ccc(OCCCCCCNCCO)c(C)c1` [MMV666020] was tested, and the “MGLI50 = Mean Growth Log I50” value [1] was -4.9, the “_MID Log10GI50” value ([1]; listed as 766672/2) was -4.93 Molar and -4.86 Molar and the “_MID Log10LC50” value ([1]; listed as 766672/2) was -4.21 Molar and -4.19 Molar. For the same molecule, the “_MID Log10TGI” value ([1]; listed as 766672/2) was -4.56 Molar and -4.52 Molar.
With `COc1cccc(C(=O)NC(c2ccc(C)cc2)c2cc(Cl)c3cccnc3c2O)c1` (stereo not shown) [MMV665969] the “MGLI50 = Mean Growth Log I50” value [1] was -6.29, the “_MID Log10GI50” value [1] was -6.3 Molar and the “_MID Log10LC50” value [1] was -4.16 Molar. For the same molecule, the “_MID Log10TGI” value [1] was -4.91 Molar.
With `CCOc1cc(Cl)c(C(C)NC(=O)c2cccc(OC)c2)cc1OCC` (stereo not shown) [MMV665803] the “MGLI50 = Mean Growth Log I50” value [1] was -5.01, the “_MID Log10LC50” value [1] was -4.0 Molar and the “_MID Log10GI50” value ([1]; listed as 766546/2) was -5.1 Molar and -4.93 Molar. The “_MID Log10TGI” value ([1]; listed as 766546/2) was -4.1 Molar and -4.05 Molar.
For `CCOc1cc(Br)c(C(C)NC(=O)c2cccc(OC)c2)cc1OCC` (stereo not shown) [MMV665796], the “MGLI50 = Mean Growth Log I50” value [1] was -5, the “_MID Log10LC50” value [1] was -4.0 Molar and the “_MID Log10GI50” value ([1]; listed as 766556/2) was -5.02 Molar and -4.97 Molar. For the same molecule, the “_MID Log10TGI” value ([1]; listed as 766556/2) was -4.07 Molar and -4.08 Molar.
For `CCOc1ccc(Nc2c3ccccc3nc3ccccc23)cc1` [MMV000304], the “candidate inhibitors” value (PfPMT) was “candidate inhibitors of PfPMT activity”.
For `Oc1c(CN2CCN(c3ccccc3F)CC2)cc(Br)c2cccnc12` [MMV000760], the “Notes (NCI60 5-dose activity pattern)” value [1] was “Differential”, the “MGLI50 = Mean Growth Log I50” value [1] was -6.02 and the “_MID Log10GI50” value ([1]; listed as 766634/2) was -6.03 Molar and -6.0 Molar. For the same molecule, the “_MID Log10LC50” value ([1]; listed as 766634/2) was -4.04 Molar and -4.06 Molar and the “_MID Log10TGI” value ([1]; listed as 766634/2) was -4.67 Molar and -4.74 Molar.
In the case of `COc1ccc(C2c3ccc4ccccc4c3Oc3ncn(CCCN(C)C)c(=N)c32)cc1` (stereo not shown) [MMV667491], the “candidate inhibitors” value (PfPMT) is reported as “candidate inhibitors of PfPMT activity”.
